Bridge positions count the residues as written; N and C are the ends. Ends that are not written are not given here. Peptide text beside a SMILES is read from it.
What was measured:
[1] = test system: Spodoptera frugiperda Sf9 cells; assay: Entomotoxicity (LC50) on cultured Sf9 cells, Celltiter-Blue viability test; assay type: cell-based; conditions: for toxicity / entomotoxic properties (in words): Sf9 cells, compared with reference PA1b
Experimental: The entomototoxic properties were determined by evaluation of the LC50 (50% lethal concentration) on cultures of Spodoptera frugiperda Sf9 cells, as described by Rahioui et al. (Biochimie, 89, 1539-43, 2007). The cells were cultured at 27° C. in medium from Lonza supplemented with 5% fetal calf serum (FCS) and 0.1% gentamicin, then seeded into 96-well plates, 24 h before the experiments (15,000 cells/wells) and exposed to increasing concentrations of synthetic peptide. After 24 h, the cell viability was determined using the Celltiter-Blue viability test (Promega), in accordance with the manufacturer's instructions. After the addition of the dye, the cells were incubated at 27° C. for 4 h. The absorbance was then measured at 570 and 600 nm using a microplate reader (MR 7000, Dynatech Laboratories Inc., USA).

PA1b-binding site = assay: Affinity for the PA1b-binding site, ligand binding assay with 125I-labeled toxin; conditions: ligand binding with toxin labeled with iodine 125I; dash = no binding in the range of concentrations tested
Experimental: The affinity for the PA1b-binding site was determined by means of ligand binding assays using a toxin labeled with iodine ^125I, as previously described (Gressent et al., Eur J Biochem, 270, 2429-35, 2003).

Compound | toxicity / entomotoxic properties (in words) [1] | Ki (PA1b-binding site) [nM] | toxicity relative to PA1b ([1]; fold versus pea PA1b)
QSCIGFCSVFDSKPLCGSSRCRCNKPLNNPFVGICERRPST [QT41] | do not have entomotoxic properties | – | –
CC[C@H](C)[C@@H]1NC(=O)[C@H](C(C)C)NC(=O)[C@H](CC(C)C)NC(=O)CNC(=O)[C@H](C(C)C)NC(=O)[C@@H]2CCCN2C(=O)[C@H]([C@@H](C)CC)NC(=O)[C@@H]2CSSC[C@@H]3NC(=O)[C@H](C(C)C)NC(=O)CNC(=O)[C@H](CC(N)=O)NC(=O)[C@@H](NC(=O)[C@H](CO)NC(=O)[C@H](C)N)CSSC[C@H](NC(=O)[C@H](C)NC(=O)[C@H](CO)NC(=O)[C@H]([C@@H](C)O)NC(=O)CNC(=O)[C@H](CSSC[C@@H](C(=O)N[C@@H](CCCNC(=N)N)C(=O)N[C@@H](CC(N)=O)C(=O)N4CCC[C@H]4C(=O)N[C@@H](CO)C(=O)NCC(=O)O)NC(=O)[C@H](Cc4ccc(O)cc4)NC(=O)CNC1=O)NC(=O)[C@@H]1CCCN1C(=O)[C@@H]1CCCN1C(=O)[C@H](CCSC)NC(=O)[C@H](CCC(=O)O)NC(=O)[C@H](Cc1ccccc1)NC(=O)[C@@H]1CCCN1C(=O)[C@H](CO)NC3=O)C(=O)N[C@@H](CCCNC(=N)N)C(=O)N2 [PA1b, reference compound] (H-ASCNGVCSPFEMPPCGTSACRCIPVGLVIGYCRNPSG-OH; disulfide 3-20, 7-22, 15-32 (inferred); N-terminus and C-terminus assumed) | – | 17 ± 1.1 | –
EFCSSVGSFCSPFNTNPCGYLGNCRCVPYYLYGGTCENPFG (disulfide 3-24, 10-26, 18-36 (inferred)) [EG41] | toxicity comparable to that of the reference PA1b peptide | 72.8 ± 2.7 | –
CC[C@H](C)[C@@H]1NC(=O)CNC(=O)[C@H](CO)NC(=O)[C@@H](NC(=O)[C@H](CC(=O)O)NC(=O)[C@H](C)N)CSSC[C@@H]2NC(=O)[C@H](CC(=O)O)NC(=O)[C@H](CO)NC(=O)[C@H](CO)NC(=O)[C@H](CCCNC(=N)N)NC(=O)[C@@H]3CSSC[C@@H](C(=O)N[C@H](C(=O)N[C@@H](CC(N)=O)C(=O)N4CCC[C@H]4C(=O)N[C@H](C(=O)N[C@@H](CO)C(=O)O)[C@@H](C)CC)[C@@H](C)CC)NC(=O)[C@H](Cc4ccccc4)NC(=O)CNC(=O)CNC(=O)[C@H]([C@@H](C)CC)NC(=O)[C@H](CC(C)C)NC(=O)[C@H](C)NC(=O)[C@H]([C@@H](C)CC)NC(=O)[C@@H]4CCCN4C(=O)[C@H]([C@@H](C)CC)NC(=O)[C@H](CSSC[C@H](NC1=O)C(=O)N[C@@H](CO)C(=O)N1CCC[C@H]1C(=O)N[C@@H](Cc1ccccc1)C(=O)N[C@@H](CCC(=O)O)C(=O)N[C@@H](CCSC)C(=O)N1CCC[C@H]1C(=O)N1CCC[C@H]1C(=O)N3)NC(=O)[C@H](CCCNC(=N)N)NC2=O [AS37] (H-ADCSGICSPFEMPPCRSSDCRCIPIALIGGFCINPIS-OH; disulfide 3-20, 7-22, 15-32 (inferred); N-terminus and C-terminus assumed) | toxicity comparable to that of the reference PA1b peptide | 15 ± 2 | –
CC[C@H](C)[C@@H]1NC(=O)[C@H](Cc2ccccc2)NC(=O)[C@@H]2CSSC[C@@H]3NC(=O)[C@H](C)NC(=O)[C@H](CCC(=O)O)NC(=O)CNC(=O)[C@@H](NC(=O)[C@H](CCCCN)NC(=O)[C@H](C)N)CSSC[C@H](NC(=O)CNC(=O)[C@H](CC(=O)O)NC(=O)CNC(=O)[C@H](C)NC(=O)[C@H](CC(N)=O)NC(=O)[C@H](CSSC[C@@H](C(=O)N[C@@H](C)C(=O)N[C@@H](CCC(N)=O)C(=O)N[C@@H](CC(C)C)C(=O)N[C@@H](CO)C(=O)N[C@H](C(=O)O)[C@@H](C)O)NC(=O)[C@H](Cc4ccccc4)NC(=O)CNC(=O)[C@@H]4CCCN4C(=O)[C@H](CC(C)C)NC(=O)[C@H]([C@@H](C)O)NC(=O)[C@H](CC(C)C)NC(=O)[C@H](Cc4ccc(O)cc4)NC(=O)[C@H](C)NC(=O)[C@H](CC(=O)O)NC(=O)[C@H]([C@@H](C)O)NC1=O)NC(=O)[C@H](Cc1ccccc1)NC(=O)[C@H](CC(N)=O)NC(=O)[C@H](Cc1ccccc1)NC(=O)[C@H](CCC(N)=O)NC(=O)[C@H]([C@@H](C)O)NC(=O)[C@H](CC(=O)O)NC3=O)C(=O)N[C@@H](CCCNC(=N)N)C(=O)N2 [AS40] (H-AKCGEACDTQFNFCNAGDGCRCFITDAYLTLPGFCAQLST-OH; disulfide 3-20, 7-22, 14-35 (inferred); N-terminus and C-terminus assumed) | toxicity comparable to that of the reference PA1b peptide | 10.3 ± 2 | –
GQCARVGMRCSRALPNPCGDIVTCRCVHLHLVGSTCIDYTGDGL [GL44] | do not have entomotoxic properties | – | –
DECWGPCSVLQTPPCPLSKCYCIPLFLVVGYCSHASS [DS37] | do not have entomotoxic properties | 694 ± 2 | –
ASCPNVGAVCSPFETKPCGNVKDCRCLPWGLFFGTCINPTG (disulfide 3-24, 10-26, 18-36) [AG41] | – | 1.3 ± 0.6 | close to ten times higher than that of PA1b

Reference: patent publication US9994623B2, “Entomotoxic polypeptides” (INSTITUT NATIONAL DE LA RECHERCHE AGRONOMIQUE, priority 2013, dated 2018)
